Measured values from patent US7033595B1, “Pseudotyped retroviruses and stable cell lines for their production” (priority 1998, dated 2006).

Columns and labels:
Type in all cases: cell-based
[1] = tested on: VSV-G pseudotyped retrovirus
wild type MMLV = tested on: wild type MMLV
[2] = tested on: Ross-River E2-E1 pseudotyped retrovirus

SMILES | inhibition of VSV-G pseudotyped retrovirus entry [1] | effect on wild type MMLV entry (wild type MMLV) | inhibition of transduction by Ross River glycoprotein-pseudotyped viruses [2]
CCN(CC)CCCC(C)Nc1ccnc2cc(Cl)ccc12 (centres unmarked) [chloroquine] | inhibit | only partially affects | dramatic inhibition
Cl.N [ammonium chloride] | inhibit | – | dramatic inhibition
